Measurements as given in patent EP1432683B9 (Recordati Ireland Limited, priority 2001, dated 2003).
Counter-ions that a name gives are not always drawn. Like-named read-outs stand apart in the source and are kept apart here.

What was measured:
[1] = Relative bioavailability of Form (I) and Form (II) in man; assay type: in vivo; details: 10 mg tablet
Description: Blood samples were taken at 15 points from time 0 to 24 h post-dosing and plasma concentrations of lercanidipine were determined with a stereoselective analytical method HPLC-MS/MS.

[2] = Bioavailability of crystalline Forms (I) and (II) in dogs; assay type: in vivo, Beagle dogs; details: for AUC0-t / Cmax / concentration in plasma of lercanidipine (S+R): oral 3 mg/kg
Description: A study was carried out on six Beagle dogs to evaluate the bioavailability of crystalline Forms (I) and (II).
Blood samples were taken at given times and plasma concentrations of lercanidipine were determined with a stereoselective analytical method HPLC-MS/MS, according to the following working conditions;
Lercanidipine was extracted from dog plasma by means of a liquid-liquid extraction with a mixture of n-hexane and ethyl ether. The dry residue of the organic phase was taken up with a mixture of methanol and water and a liquid-phase chromatographic separation (LC) was carried out; the two enantiomers of lercanidipine were separated on a CHIROBIOTIC V column (Vancomycin) (particle size […], column size 150 x 4.6 mm (ASTEC, NJ, USA)) and were detected with a mass spectrometer (MS/MS) by using an electrospray technique.
The analytical method was validated in a concentration range between 0.1 and 20 ng/ml of plasma for both enantiomers. The method has shown to be specific with an accuracy of 15%. The average concentrations of lercanidipine in the tables represent the sum of both enantiomers.

[3] = Hygroscopicity by DVS analysis; assay type: physicochemical; details: 25°C
Description: The hygroscopicity of both crystalline Forms (I) and (II) was measured with DVS analysis by means of a water absorption analyzer (SURFACE MEASUREMENT SYSTEM, Marion, Buckinghamshire, UK) according to the following working conditions: […]

[4] = Solubility in mixtures of water-ethanol at 25°C and 40°C; assay type: physicochemical

With `COC(=O)C1=C(C)NC(C)=C(C(=O)OC(C)(C)CN(C)CCC(c2ccccc2)c2ccccc2)C1c1cccc([N+](=O)[O-])c1` (single isomer, unassigned) [Form (I), lercanidipine hydrochloride] the “tmax compared with Form (II)” value [1] was “shorter than that of Form (II)”, the AUC(0-t) at 24 h ([1]; human, plasma, po, 10 mg, single dose, geom. least square mean) was 8.82 ng·h/mL and the Cmax ([1]; human, plasma, po, 10 mg, single dose, geom. least square mean, read-out: Cmax) was 3.18 ng/mL. It also gave a Tmax ([1]; human, plasma, po, 10 mg, single dose, median, read-out: tmax) of 1.5 h, an AUC0-t ([2]; Dog 1, hydrochloride, 3 mg/kg) of 15.41 ng/h/mL and a Cmax ([2]; Dog 1, hydrochloride, 3 mg/kg) of 8.29 ng/mL. It also gave a Cmax ([2]; Dog 2 (not included in mean), hydrochloride, 3 mg/kg) of 128.87 ng/mL, an AUC0-t ([2]; Dog 3, hydrochloride, 3 mg/kg) of 27.544 ng/h/mL and a Cmax ([2]; Dog 3, hydrochloride, 3 mg/kg) of 11.62 ng/mL. The AUC0-t ([2]; Dog 4, hydrochloride, 3 mg/kg) was 46.57 ng/h/mL, the Cmax ([2]; Dog 4, hydrochloride, 3 mg/kg) was 27.17 ng/mL and the AUC0-t ([2]; Dog 5, hydrochloride, 3 mg/kg) was 70.39 ng/h/mL. For the same compound, the Cmax ([2]; Dog 5, hydrochloride, 3 mg/kg) was 22.58 ng/mL, the AUC0-t ([2]; Dog 6, hydrochloride, 3 mg/kg) was 28.72 ng/h/mL and the Cmax ([2]; Dog 6, hydrochloride, 3 mg/kg) was 17.83 ng/mL. The Cmax ([2]; Mean (n=5, Dog 2 not included), hydrochloride, 3 mg/kg) was 17.50 ng/mL, the “concentration in plasma of lercanidipine (S+R)” value (from here on “concentration in plasma”) ([2]; Time 0 h, Dog 1) was 0.00 ng/mL and the “concentration in plasma” value ([2]; Time 0 h, Dog 2 (not included in mean)) was 0.00 ng/mL. For the same compound, the “concentration in plasma” value ([2]; Time 0 h, Dog 3) was 0.00 ng/mL, the “concentration in plasma” value ([2]; Time 0 h, Dog 4) was 0.00 ng/mL and the “concentration in plasma” value ([2]; Time 0 h, Dog 5) was 0.00 ng/mL. For the same compound, the “concentration in plasma” value ([2]; Time 0 h, Dog 6) was 0.00 ng/mL, the “concentration in plasma” value ([2]; Time 0 h, Mean (Dog 2 not included)) was 0.00 ng/mL and the “concentration in plasma” value ([2]; Time 0.5 h, Dog 2 (not included in mean), hydrochloride, 3 mg/kg, 30 min) was 0.20 ng/mL. For the same compound, the “concentration in plasma” value ([2]; Time 0.5 h, Dog 3, hydrochloride, 3 mg/kg) was 0.00 ng/mL, the “concentration in plasma” value ([2]; Time 0.5 h, Dog 4) was 0.00 ng/mL and the “concentration in plasma” value ([2]; Time 0.5 h, Dog 5) was 0.00 ng/mL. The “concentration in plasma” value ([2]; Time 0.5 h, Dog 6) was 0.00 ng/mL, the “concentration in plasma” value ([2]; Time 0.5 h, Mean (Dog 2 not included), hydrochloride, 3 mg/kg) was 0.00 ng/mL and the “concentration in plasma” value ([2]; Time 1 h, Dog 2 (not included in mean), hydrochloride, 3 mg/kg, 60 min) was 0.29 ng/mL. For the same compound, the “concentration in plasma” value ([2]; Time 1 h, Dog 3, hydrochloride, 3 mg/kg) was 0.00 ng/mL, the “concentration in plasma” value ([2]; Time 1 h, Dog 4, hydrochloride, 3 mg/kg) was 0.00 ng/mL and the “concentration in plasma” value ([2]; Time 1 h, Dog 5, hydrochloride, 3 mg/kg) was 0.00 ng/mL. The “concentration in plasma” value ([2]; Time 1 h, Dog 6) was 0.00 ng/mL, the “concentration in plasma” value ([2]; Time 1 h, Mean (Dog 2 not included), hydrochloride, 3 mg/kg, 60 min) was 0.12 ng/mL and the “concentration in plasma” value ([2]; Time 1.5 h, Dog 1, hydrochloride, 3 mg/kg, 90 min) was 1.83 ng/mL. For the same compound, the “concentration in plasma” value ([2]; Time 1.5 h, Dog 2 (not included in mean), hydrochloride, 3 mg/kg, 90 min) was 1.06 ng/mL, the “concentration in plasma” value ([2]; Time 1.5 h, Dog 3, hydrochloride, 3 mg/kg, 90 min) was 0.32 ng/mL and the “concentration in plasma” value ([2]; Time 1.5 h, Dog 4, hydrochloride, 3 mg/kg) was 0.00 ng/mL. For the same compound, the “concentration in plasma” value ([2]; Time 1.5 h, Dog 5, hydrochloride, 3 mg/kg, 90 min) was 1.33 ng/mL, the “concentration in plasma” value ([2]; Time 1.5 h, Dog 6, hydrochloride, 3 mg/kg) was 0.00 ng/mL and the “concentration in plasma” value ([2]; Time 1.5 h, Mean (Dog 2 not included), hydrochloride, 3 mg/kg, 90 min) was 0.70 ng/mL. For the same compound, the “concentration in plasma” value ([2]; Time 2 h, Dog 1, hydrochloride, 3 mg/kg, 120 min) was 8.29 ng/mL, the “concentration in plasma” value ([2]; Time 2 h, Dog 2 (not included in mean), hydrochloride, 3 mg/kg, 120 min) was 8.94 ng/mL and the “concentration in plasma” value ([2]; Time 2 h, Dog 3, hydrochloride, 3 mg/kg, 120 min) was 0.94 ng/mL. The “concentration in plasma” value ([2]; Time 2 h, Dog 4, hydrochloride, 3 mg/kg, 120 min) was 0.35 ng/mL, the “concentration in plasma” value ([2]; Time 2 h, Dog 5, hydrochloride, 3 mg/kg, 120 min) was 17.11 ng/mL and the “concentration in plasma” value ([2]; Time 2 h, Dog 6, hydrochloride, 3 mg/kg, 120 min) was 0.28 ng/mL. For the same compound, the “concentration in plasma” value ([2]; Time 2 h, Mean (Dog 2 not included), hydrochloride, 3 mg/kg, 120 min) was 5.39 ng/mL, the “concentration in plasma” value ([2]; Time 3 h, Dog 1, hydrochloride, 3 mg/kg, 180 min) was 4.44 ng/mL and the “concentration in plasma” value ([2]; Time 3 h, Dog 2 (not included in mean), hydrochloride, 3 mg/kg, 180 min) was 36.39 ng/mL. For the same compound, the “concentration in plasma” value ([2]; Time 3 h, Dog 3, hydrochloride, 3 mg/kg, 180 min) was 0.92 ng/mL, the “concentration in plasma” value ([2]; Time 3 h, Dog 4, hydrochloride, 3 mg/kg, 180 min) was 27.17 ng/mL and the “concentration in plasma” value ([2]; Time 3 h, Dog 5, hydrochloride, 3 mg/kg, 180 min) was 22.58 ng/mL. The “concentration in plasma” value ([2]; Time 3 h, Dog 6, hydrochloride, 3 mg/kg, 180 min) was 1.29 ng/mL, the “concentration in plasma” value ([2]; Time 3 h, Mean (Dog 2 not included), hydrochloride, 3 mg/kg, 180 min) was 11.28 ng/mL and the “concentration in plasma” value ([2]; Time 4 h, Dog 1, hydrochloride, 3 mg/kg, 240 min) was 1.81 ng/mL. The “concentration in plasma” value ([2]; Time 4 h, Dog 2 (not included in mean), hydrochloride, 3 mg/kg, 240 min) was 128.87 ng/mL, the “concentration in plasma” value ([2]; Time 4 h, Dog 3, hydrochloride, 3 mg/kg, 240 min) was 9.42 ng/mL and the “concentration in plasma” value ([2]; Time 4 h, Dog 4, hydrochloride, 3 mg/kg, 240 min) was 11.07 ng/mL. The “concentration in plasma” value ([2]; Time 4 h, Dog 5, hydrochloride, 3 mg/kg, 240 min) was 16.39 ng/mL, the “concentration in plasma” value ([2]; Time 4 h, Dog 6, hydrochloride, 3 mg/kg, 240 min) was 6.26 ng/mL and the “concentration in plasma” value ([2]; Time 4 h, Mean (Dog 2 not included), hydrochloride, 3 mg/kg, 240 min) was 8.99 ng/mL. For the same compound, the “concentration in plasma” value ([2]; Time 6 h, Dog 1, hydrochloride, 3 mg/kg, 360 min) was 0.80 ng/mL, the “concentration in plasma” value ([2]; Time 6 h, Dog 2 (not included in mean), hydrochloride, 3 mg/kg, 360 min) was 26.65 ng/mL and the “concentration in plasma” value ([2]; Time 6 h, Dog 3, hydrochloride, 3 mg/kg, 360 min) was 11.62 ng/mL. The “concentration in plasma” value ([2]; Time 6 h, Dog 4, hydrochloride, 3 mg/kg, 360 min) was 2.53 ng/mL, the Tmax ([2]; dog, plasma, po, 3 mg/kg, Dog 1, read-out: Tmax) was 2 h and the Tmax ([2]; dog, plasma, po, 3 mg/kg, Dog 4, read-out: Tmax) was 3 h. It also gave a Tmax ([2]; dog, plasma, po, 3 mg/kg, Dog 5, read-out: Tmax) of 3 h, a Tmax ([2]; dog, plasma, po, 3 mg/kg, Dog 6, read-out: Tmax) of 6 h and a Tmax ([2]; dog, plasma, po, 3 mg/kg, Mean (n=5, Dog 2 not included), read-out: Tmax) of 4 h. For the same compound, the concentration at 0.5 h ([2]; dog, plasma, po, 3 mg/kg, Time 0.5 h, Dog 1, read-out: concentration in plasma of lercanidipine (S+R)) was 0.1 ng/mL, the concentration at 1 h ([2]; dog, plasma, po, 3 mg/kg, Time 1 h, Dog 1, read-out: concentration in plasma of lercanidipine (S+R)) was 0.59 ng/mL and the concentration at 6 h ([2]; dog, plasma, po, 3 mg/kg, Time 6 h (last sampling time), Mean (Dog 2 not included), read-out: concentration in plasma of lercanidipine (S+R)) was 8.5 ± 6.5 ng/mL. It also gave a concentration at 6 h ([2]; dog, plasma, po, 3 mg/kg, Time 6 h, Dog 5, read-out: concentration in plasma of lercanidipine (S+R)) of 9.73 ng/mL, a concentration at 6 h ([2]; dog, plasma, po, 3 mg/kg, Time 6 h, Dog 6, read-out: concentration in plasma of lercanidipine (S+R)) of 17.8 ng/mL and a mass change ([3]; at 0% RH) of -0.3%. For the same compound, the mass change ([3]; at 95% RH) was “+0.15%”, the “solubility compared with Form (II)” value ([4]; 25°C and 40°C) was “higher than that of crystalline Form (II)” and the “water concentration at which the maximum solubility is reached” value ([4]; at both 25°C and 40°C) was 20%.
